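How tested: cells in 96-well plates exposed to compound for 48 hours at five concentrations. Here, GI50 denotes the concentration required for 50% inhibition of growth. TGI: total growth inhibition.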
Tests used:
Assay in all cases: DTP human tumour cell line panel, 48 h
HL-60(TB) leukemia = tested on: HL-60(TB) leukemia
A549 NSCLC = tested on: A549 NSCLC
786-0 renal = tested on: 786-0 renal
KM12 colon = tested on: KM12 colon
TK-10 renal = tested on: TK-10 renal
SNB-75 CNS = tested on: SNB-75 CNS
EKVX NSCLC = tested on: EKVX NSCLC
MDA-MB-231 breast = tested on: MDA-MB-231 breast
MOLT-4 leukemia = tested on: MOLT-4 leukemia
HCT-116 colon = tested on: HCT-116 colon
CAKI-1 renal = tested on: CAKI-1 renal
RXF 393 renal = tested on: RXF 393 renal
MALME-3M melanoma = tested on: MALME-3M melanoma
HT29 colon = tested on: HT29 colon

Structure (SMILES)	TGI (HL-60(TB) leukemia) [µM]	TGI (A549 NSCLC) [µM]	TGI (786-0 renal) [µM]	TGI (KM12 colon) [µM]	TGI (TK-10 renal) [µM]	TGI (SNB-75 CNS) [µM]	TGI (EKVX NSCLC) [µM]	TGI (MDA-MB-231 breast) [µM]	TGI (MOLT-4 leukemia) [µM]	TGI (HCT-116 colon) [µM]	TGI (CAKI-1 renal) [µM]	TGI (RXF 393 renal) [µM]	TGI (MALME-3M melanoma) [µM]	TGI (HT29 colon) [µM]	GI50 (A549 NSCLC) [µM]	GI50 (KM12 colon) [µM]	GI50 (TK-10 renal) [µM]	GI50 (MDA-MB-231 breast) [µM]	GI50 (HT29 colon) [µM]
COC(=O)CC1CN(C(=O)OCc2ccccc2)C(C)(C)O1 (configuration not stated)	> 100	> 100	> 100	> 100	> 100	75.8	> 100	> 100	> 100	> 100	> 100	> 100	> 100	–	–	–	–	–	–
Cn1c(=S)[nH]c2c(Cl)cc(Cl)cc2c1=O	78.8	> 100	> 100	> 100	> 100	> 100	> 100	> 100	> 100	> 100	> 100	> 100	–	–	–	–	–	–	–
Cc1cc(Cl)ccc1NC(=O)/C(CC(=O)CC(c1ccccc1)c1c(O)c2ccccc2oc1=O)=N\O (configuration not stated)	> 100	> 100	> 100	> 100	> 100	> 100	> 100	> 100	> 100	> 100	> 100	> 100	–	> 100	–	–	–	–	–
CC1=C(C(=O)OC23CC4CC(CC(C4)C2)C3)C(c2ccccc2OC(F)F)C(C(=O)OC23CC4CC(CC(C4)C2)C3)=C(C)N1 (configuration not stated)	> 100	> 100	> 100	> 100	–	> 100	–	> 100	> 100	> 100	> 100	> 100	> 100	> 100	–	–	–	–	–
Cc1ccc2nc(CN3CCCCC3)cc(=O)n2c1	> 100	> 100	> 100	> 100	> 100	> 100	> 100	> 100	> 100	> 100	> 100	–	> 100	> 100	–	–	–	–	–
COC(=O)C(Cc1ccccc1)C(=O)NC(CNC(=O)OCc1ccccc1)C(=O)OCc1ccccc1 (configuration not stated)	> 67.9	–	62.7	> 100	98	64.8	> 100	50.3	43.7	77.9	> 87.2	67.3	43.2	> 61.2	–	–	–	–	–
CC(=O)OCCC[C@@H]1C(=C(C)C)CCC2[C@@]1(C)CC[C@@]1(C)C[C@](C)(CCC=C(C)C)CC[C@]21C (some centres not stated)	> 100	> 100	> 100	> 100	0.0632	> 100	> 100	> 100	> 100	> 100	> 100	–	> 100	> 100	–	–	–	–	–
CC1(C)C[C@H]2C3=CC[C@@H]4[C@@]5(C)CC[C@H](O)C(C)(C)[C@@H]5CC[C@@]4(C)[C@]3(C)C[C@@H](O)[C@@]23C[C@@H]1OC3=O	> 100	> 100	> 100	> 100	> 100	> 100	> 100	> 100	> 100	> 100	> 100	–	> 100	> 100	–	–	–	–	–
CO[C@H]1C[C@@H]2CC[C@@H](C)[C@@](O)(O2)C(=O)C(=O)N2CCCC[C@H]2C(=O)O[C@H]([C@H](C)C[C@@H]2CC[C@@H](OC(=O)C(C)(CO)CO)[C@H](OC)C2)CC(=O)[C@H](C)/C=C(\C)[C@@H](O)[C@@H](OC)C(=O)[C@H](C)C[C@H](C)/C=C/C=C/C=C/1C	6.31	> 100	> 100	> 100	–	24.4	> 52.2	31.2	> 100	> 100	> 79.7	21.9	–	> 100	0.95	2.17	0.359	2.62	0.182
c1ccc2c(c1)n1c(N3CCOCC3)[n+]3ccccc3c1c1c3cccc[n+]3c(N3CCOCC3)n21	> 100	> 100	> 100	> 100	> 100	> 100	> 100	> 100	> 100	> 100	> 100	> 100	> 100	–	–	–	–	–	–
CCOC(=O)C1C(C(C)C)C2(C#N)C(=N)OC1(C)C2(C#N)C#N (configuration not stated)	> 100	> 100	> 100	> 100	> 100	74.4	> 100	> 100	–	> 100	23	> 100	> 100	> 100	–	–	–	–	–
CC(=O)CCC(=O)CC(O)(C(F)(F)F)C(F)(F)F	38.1	41.9	30.2	31.1	44.1	65.2	–	35	36.6	31.3	–	34.5	32.9	34.7	–	–	–	–	–

— PubChem BioAssay (NCI)
